Converted amounts (≈) assume the structure as drawn. The source made the active and inactive calls. The calls are words filed in the database; no cut-off is given here.
Legend:
[1] = Apparent permeability across apical to basolateral side in MDCK cells; type: ADME, cell-based, Canis lupus familiaris; details: dog, read-out: permeability
[2] = Protein binding in human plasma; type: ADME, cell-free; details: read-out: PPB (converted)
[3] = Metabolic stability in rat hepatocytes assessed as clearance; type: ADME, cell-based, Hepatocyte
[4] = molecular target: Transient receptor potential cation channel subfamily A member 1 (Rattus norvegicus) (UniProt Q6RI86); experiment: In vivo antagonist activity at TRPA1 in AITC-induced rat pain model assessed as nocifensive behaviour at 7.95 ratio of free plasma concentration to IC50 for rat […]; type: functional, organism-based; details: concentration not given here
Transient receptor potential cation channel subfamily A member 1 (Rattus norvegicus), sequence (Q6RI86 whole entry): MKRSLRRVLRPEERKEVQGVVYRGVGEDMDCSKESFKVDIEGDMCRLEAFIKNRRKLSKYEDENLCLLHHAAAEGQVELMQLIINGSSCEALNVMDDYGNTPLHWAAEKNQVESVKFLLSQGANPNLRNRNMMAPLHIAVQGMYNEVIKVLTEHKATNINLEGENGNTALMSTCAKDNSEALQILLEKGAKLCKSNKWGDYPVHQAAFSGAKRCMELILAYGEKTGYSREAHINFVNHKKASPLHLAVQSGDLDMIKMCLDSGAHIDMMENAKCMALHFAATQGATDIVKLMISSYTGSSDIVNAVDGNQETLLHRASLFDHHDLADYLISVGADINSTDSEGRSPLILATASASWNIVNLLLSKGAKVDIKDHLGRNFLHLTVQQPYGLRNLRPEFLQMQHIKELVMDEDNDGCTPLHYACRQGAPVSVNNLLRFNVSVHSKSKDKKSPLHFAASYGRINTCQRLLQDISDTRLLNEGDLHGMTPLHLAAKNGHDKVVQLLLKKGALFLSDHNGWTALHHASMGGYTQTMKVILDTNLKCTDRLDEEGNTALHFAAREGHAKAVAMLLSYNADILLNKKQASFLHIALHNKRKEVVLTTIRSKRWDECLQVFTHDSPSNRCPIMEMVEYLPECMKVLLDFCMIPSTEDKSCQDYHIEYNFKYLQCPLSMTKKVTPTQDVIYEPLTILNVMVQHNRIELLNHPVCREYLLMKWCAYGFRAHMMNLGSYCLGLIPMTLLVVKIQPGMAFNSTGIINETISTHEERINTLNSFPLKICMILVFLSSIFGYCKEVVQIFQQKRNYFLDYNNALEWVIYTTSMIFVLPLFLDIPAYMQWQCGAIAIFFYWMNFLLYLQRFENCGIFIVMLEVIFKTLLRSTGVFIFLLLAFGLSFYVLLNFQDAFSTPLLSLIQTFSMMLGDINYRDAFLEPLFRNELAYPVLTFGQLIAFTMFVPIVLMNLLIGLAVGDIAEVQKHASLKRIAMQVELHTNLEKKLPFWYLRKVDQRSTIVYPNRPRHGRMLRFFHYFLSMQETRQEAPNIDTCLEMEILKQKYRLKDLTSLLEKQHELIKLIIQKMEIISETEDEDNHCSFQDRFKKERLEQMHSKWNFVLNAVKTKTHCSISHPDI

[5] = Volume of distribution at steady stare in rat at 1 mg/kg; type: ADME, organism-based; details: in vivo, read-out: Vdss
Cytochrome P450 2D6 = Cytochrome P450 2D6 (Homo sapiens, UniProt P10635); experiment: Inhibition of CYP2D6 (unknown origin); type: ADME
[6] = Half life in rat at 1 mg/kg; type: ADME, organism-based; details: in vivo
Cav1.2 = Cav1.2 (Homo sapiens, UniProt Q13936); experiment: Inhibition of Cav1.2 (unknown origin) at 10 uM
[7] = Inhibition of guinea pig TRPA1; parameters: species or system Cavia porcellus
[8] = molecular target: Transient receptor potential cation channel subfamily A member 1 (Rattus norvegicus) (UniProt Q6RI86); experiment: In vivo antagonist activity at TRPA1 in AITC-induced rat pain model assessed as nocifensive behaviour at 24.47 ratio of free plasma concentration to IC50 for rat […]; type: functional, organism-based; details: concentration not given here
Cytochrome P450 3A4 = Cytochrome P450 3A4 (Homo sapiens, UniProt P08684); experiment: Inhibition of CYP3A4 (unknown origin); type: ADME
Cytochrome P450 3A4, sequence (P08684 whole entry): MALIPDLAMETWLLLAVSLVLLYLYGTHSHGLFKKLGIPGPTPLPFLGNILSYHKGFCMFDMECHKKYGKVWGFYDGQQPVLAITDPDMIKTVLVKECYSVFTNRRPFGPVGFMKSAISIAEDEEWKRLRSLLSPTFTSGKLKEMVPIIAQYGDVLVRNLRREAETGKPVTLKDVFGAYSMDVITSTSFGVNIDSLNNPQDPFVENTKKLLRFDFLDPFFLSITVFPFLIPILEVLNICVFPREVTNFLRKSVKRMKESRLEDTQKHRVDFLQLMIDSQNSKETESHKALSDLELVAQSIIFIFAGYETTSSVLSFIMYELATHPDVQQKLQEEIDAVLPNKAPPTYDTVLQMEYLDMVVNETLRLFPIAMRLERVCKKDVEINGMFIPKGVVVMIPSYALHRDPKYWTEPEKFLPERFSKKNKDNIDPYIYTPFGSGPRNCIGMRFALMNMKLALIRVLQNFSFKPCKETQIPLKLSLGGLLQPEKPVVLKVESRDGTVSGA

[9] = molecular target: Transient receptor potential cation channel subfamily M member 8 (Homo sapiens) (UniProt Q7Z2W7); experiment: Inhibition of human TRPM8 expressed in HEK293F cells assessed as inhibition of […]-induced calcium response up to 20 uM; type: cell-based
[10] = Clearance in rat at 1 mg/kg; type: ADME, organism-based; details: in vivo
[11] = Protein binding in rat plasma; type: ADME, cell-free; details: read-out: PPB (converted)
[12] = Unbound Volume of distribution at steady state in rat at 1 mg/kg; type: ADME, organism-based; details: in vivo
[13] = Antagonist activity at human TRPA1 expressed in CHO cells assessed as cinnamaldehyde-induced calcium flux measured after 90 mins by FLIPR assay; type: cell-based; details: 1.5 h
Nav1.5 = Nav1.5 (Homo sapiens, UniProt Q14524); experiment: Inhibition of Nav1.5 (unknown origin) at 10 uM
Nav1.5, sequence (Q14524 whole entry): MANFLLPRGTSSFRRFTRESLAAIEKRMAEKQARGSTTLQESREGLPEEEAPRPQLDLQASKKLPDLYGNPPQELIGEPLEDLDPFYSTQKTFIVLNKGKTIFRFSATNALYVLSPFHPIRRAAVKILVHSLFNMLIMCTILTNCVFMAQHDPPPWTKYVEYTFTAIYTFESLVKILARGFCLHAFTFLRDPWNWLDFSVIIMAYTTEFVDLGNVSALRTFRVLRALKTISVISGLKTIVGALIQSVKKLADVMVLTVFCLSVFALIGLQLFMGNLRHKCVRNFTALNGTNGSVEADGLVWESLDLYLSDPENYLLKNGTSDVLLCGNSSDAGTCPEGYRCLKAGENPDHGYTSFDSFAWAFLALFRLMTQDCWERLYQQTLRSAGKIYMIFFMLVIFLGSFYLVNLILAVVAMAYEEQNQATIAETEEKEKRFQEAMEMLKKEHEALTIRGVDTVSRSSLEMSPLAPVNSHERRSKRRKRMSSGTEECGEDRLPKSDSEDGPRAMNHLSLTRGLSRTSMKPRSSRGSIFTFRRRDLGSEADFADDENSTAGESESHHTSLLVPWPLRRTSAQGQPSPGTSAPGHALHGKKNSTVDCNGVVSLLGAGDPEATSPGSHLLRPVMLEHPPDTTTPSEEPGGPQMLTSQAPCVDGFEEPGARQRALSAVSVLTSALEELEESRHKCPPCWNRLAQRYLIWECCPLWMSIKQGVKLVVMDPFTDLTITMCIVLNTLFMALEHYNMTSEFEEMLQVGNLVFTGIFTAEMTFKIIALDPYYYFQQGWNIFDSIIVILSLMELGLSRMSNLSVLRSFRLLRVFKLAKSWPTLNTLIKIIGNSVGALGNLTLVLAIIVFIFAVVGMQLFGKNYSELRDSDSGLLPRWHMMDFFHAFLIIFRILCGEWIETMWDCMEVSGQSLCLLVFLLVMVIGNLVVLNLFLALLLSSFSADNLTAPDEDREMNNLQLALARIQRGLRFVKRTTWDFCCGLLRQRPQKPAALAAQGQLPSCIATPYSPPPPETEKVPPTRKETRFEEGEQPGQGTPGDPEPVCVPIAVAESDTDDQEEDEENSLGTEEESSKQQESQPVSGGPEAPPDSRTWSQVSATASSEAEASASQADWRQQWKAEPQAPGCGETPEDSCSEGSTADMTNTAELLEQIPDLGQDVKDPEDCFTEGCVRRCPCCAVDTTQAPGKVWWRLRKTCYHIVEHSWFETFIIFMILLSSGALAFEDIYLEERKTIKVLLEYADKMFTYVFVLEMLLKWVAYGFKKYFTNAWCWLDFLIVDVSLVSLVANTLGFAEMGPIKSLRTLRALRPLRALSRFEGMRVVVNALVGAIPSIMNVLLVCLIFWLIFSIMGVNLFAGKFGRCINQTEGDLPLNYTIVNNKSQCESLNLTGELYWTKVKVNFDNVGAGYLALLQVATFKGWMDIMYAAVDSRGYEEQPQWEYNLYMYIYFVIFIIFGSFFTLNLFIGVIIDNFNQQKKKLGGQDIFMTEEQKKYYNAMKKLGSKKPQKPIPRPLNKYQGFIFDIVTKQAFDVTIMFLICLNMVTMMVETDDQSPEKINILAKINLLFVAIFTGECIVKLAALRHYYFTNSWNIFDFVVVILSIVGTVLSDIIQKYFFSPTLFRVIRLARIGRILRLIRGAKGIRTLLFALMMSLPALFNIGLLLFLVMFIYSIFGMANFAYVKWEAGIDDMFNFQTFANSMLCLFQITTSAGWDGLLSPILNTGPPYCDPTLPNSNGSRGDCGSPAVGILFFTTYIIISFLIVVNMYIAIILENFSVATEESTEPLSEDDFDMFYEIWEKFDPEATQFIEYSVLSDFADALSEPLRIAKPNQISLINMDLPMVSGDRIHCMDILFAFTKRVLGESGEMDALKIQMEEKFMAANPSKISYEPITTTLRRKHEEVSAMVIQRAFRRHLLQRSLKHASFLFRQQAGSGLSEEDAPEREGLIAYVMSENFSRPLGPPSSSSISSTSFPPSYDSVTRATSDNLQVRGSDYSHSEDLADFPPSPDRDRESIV

Cavia porcellus = experiment: Antiinflammatory activity against ovalbumin-induced po dosed Hartley guinea pig asthma model assessed as reduction in BAL fluid infiltrate in the airway treated 2 hrs before and 8 hrs after 28 days of ovalbumin challenge measured after 24 hrs; type: functional, organism-based
[14] = Oral bioavailability in rat at 1 mg/kg; type: ADME, organism-based; details: in vivo
[15] = Kinetic solubility of the compound; type: physicochemical; details: read-out: Kinetic_solubility
[16] = Antagonist activity at rat TRPA1 expressed in CHO cells assessed as cinnamaldehyde-induced calcium flux measured after 90 mins by FLIPR assay; type: cell-based; details: 1.5 h
[17] = Metabolic stability in rat liver microsomes assessed as clearance by LC/MS-MS analysis; type: ADME, Microsome
[18] = molecular target: Transient receptor potential cation channel subfamily A member 1 (Rattus norvegicus) (UniProt Q6RI86); experiment: In vivo antagonist activity at TRPA1 in AITC-induced rat pain model assessed as nocifensive behaviour at 93.41 ratio of free plasma concentration to IC50 for rat […]; type: functional, organism-based; details: concentration not given here
hERG (KCNH2) = hERG (KCNH2) (Homo sapiens, UniProt Q12809); experiment: Inhibition of human ERG at 10 uM
hERG (KCNH2), sequence (Q12809 whole entry): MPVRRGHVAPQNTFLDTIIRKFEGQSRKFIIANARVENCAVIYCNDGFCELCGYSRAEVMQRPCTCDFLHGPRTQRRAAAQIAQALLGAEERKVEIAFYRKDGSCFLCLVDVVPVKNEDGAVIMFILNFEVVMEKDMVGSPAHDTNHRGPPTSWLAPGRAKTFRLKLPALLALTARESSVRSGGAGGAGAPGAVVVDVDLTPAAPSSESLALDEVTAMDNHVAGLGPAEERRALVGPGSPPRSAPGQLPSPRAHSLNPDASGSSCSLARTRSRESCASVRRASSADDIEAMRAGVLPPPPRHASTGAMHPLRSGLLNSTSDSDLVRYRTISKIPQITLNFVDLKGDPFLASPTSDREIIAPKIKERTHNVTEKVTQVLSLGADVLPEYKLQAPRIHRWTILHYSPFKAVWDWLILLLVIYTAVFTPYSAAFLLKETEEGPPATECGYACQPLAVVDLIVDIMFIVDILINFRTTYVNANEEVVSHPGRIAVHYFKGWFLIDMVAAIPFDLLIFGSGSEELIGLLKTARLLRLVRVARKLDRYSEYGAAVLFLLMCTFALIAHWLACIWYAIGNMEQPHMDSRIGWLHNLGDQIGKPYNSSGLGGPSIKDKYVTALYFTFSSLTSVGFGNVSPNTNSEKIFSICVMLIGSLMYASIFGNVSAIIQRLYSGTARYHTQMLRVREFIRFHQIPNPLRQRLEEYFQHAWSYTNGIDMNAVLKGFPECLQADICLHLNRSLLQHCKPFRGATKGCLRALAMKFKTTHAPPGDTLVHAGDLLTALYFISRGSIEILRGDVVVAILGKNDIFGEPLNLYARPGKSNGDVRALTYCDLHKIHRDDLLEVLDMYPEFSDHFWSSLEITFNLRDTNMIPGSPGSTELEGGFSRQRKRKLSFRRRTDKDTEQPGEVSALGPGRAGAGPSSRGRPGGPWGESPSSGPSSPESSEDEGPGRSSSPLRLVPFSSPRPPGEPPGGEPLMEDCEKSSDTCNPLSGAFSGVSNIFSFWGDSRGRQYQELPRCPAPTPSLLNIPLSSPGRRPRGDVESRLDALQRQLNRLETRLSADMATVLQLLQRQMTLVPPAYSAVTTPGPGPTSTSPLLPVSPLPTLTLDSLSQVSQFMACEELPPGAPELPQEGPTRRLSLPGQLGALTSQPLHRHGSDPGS

[19] = Lipophilicity, logD of compound; type: physicochemical; details: octanol/water
[20] = Metabolic stability in human liver microsomes assessed as clearance by LC/MS-MS analysis; type: ADME, Microsome
[21] = molecular target: T1, Short transient receptor potential channel 6 (Homo sapiens) (UniProt Q9Y210); experiment: Inhibition of human TRPC6 expressed in HEK293F cells assessed as inhibition of carbachol-induced calcium response up to 20 uM; type: cell-based
T1 sequence (whole entry): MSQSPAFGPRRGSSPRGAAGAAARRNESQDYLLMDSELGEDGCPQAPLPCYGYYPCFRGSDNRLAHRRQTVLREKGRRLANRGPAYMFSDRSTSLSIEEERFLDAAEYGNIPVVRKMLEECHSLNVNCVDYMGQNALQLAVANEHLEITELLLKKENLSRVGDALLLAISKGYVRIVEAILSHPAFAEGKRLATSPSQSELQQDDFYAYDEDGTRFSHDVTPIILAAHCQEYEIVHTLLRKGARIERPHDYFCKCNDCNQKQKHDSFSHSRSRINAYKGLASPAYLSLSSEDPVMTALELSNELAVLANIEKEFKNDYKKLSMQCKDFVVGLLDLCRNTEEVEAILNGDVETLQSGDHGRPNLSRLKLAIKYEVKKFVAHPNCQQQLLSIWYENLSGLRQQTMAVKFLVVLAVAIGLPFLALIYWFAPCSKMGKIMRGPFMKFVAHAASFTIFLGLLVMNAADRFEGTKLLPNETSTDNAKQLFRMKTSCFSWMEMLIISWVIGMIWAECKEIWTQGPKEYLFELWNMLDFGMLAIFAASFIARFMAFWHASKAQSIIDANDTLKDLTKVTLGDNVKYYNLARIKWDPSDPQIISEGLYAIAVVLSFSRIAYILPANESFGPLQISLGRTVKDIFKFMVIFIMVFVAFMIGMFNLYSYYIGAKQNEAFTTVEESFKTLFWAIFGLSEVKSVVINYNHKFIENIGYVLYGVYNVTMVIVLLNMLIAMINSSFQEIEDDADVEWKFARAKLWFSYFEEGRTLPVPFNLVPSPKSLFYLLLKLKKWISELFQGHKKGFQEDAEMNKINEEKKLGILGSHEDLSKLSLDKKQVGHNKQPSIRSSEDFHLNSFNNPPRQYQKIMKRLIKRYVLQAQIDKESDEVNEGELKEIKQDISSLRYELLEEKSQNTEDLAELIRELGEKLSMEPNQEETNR

[22] = molecular target: Transient receptor potential cation channel subfamily A member 1 (Rattus norvegicus) (UniProt Q6RI86); experiment: In vivo antagonist activity at TRPA1 in AITC-induced rat pain model assessed as nocifensive behaviour at 2.18 ratio of free plasma concentration to IC50 for rat […]; type: functional, organism-based; details: concentration not given here
Rattus norvegicus = organism: Rattus norvegicus; experiment: Antinociceptive activity against AITC-induced rat pain model assessed as nocifensive behaviour by measuring unbound concentration; type: functional, organism-based

Papp A→B [1]: 16 ×10⁻⁶ cm/s
fraction unbound [2]: 0.171
CLhep predicted [3]: 29 mL/min/kg
inhibition [4]: 53%
Vd [5]: 2.1 L/kg
IC50 (Cytochrome P450 2D6): > 10000 nM
half-life [6]: 1.6 h
IC50 [7]: 7.1 nM
inhibition [8]: 80%
IC50 (Cytochrome P450 3A4): > 10000 nM
inhibition [9]: inactive
clearance [10]: 17 mL/min/kg
fraction unbound [11]: 0.246
Vduss [12]: 8.54 L/kg
IC50 [13]: 0.9 nM
bioavailability [14]: 90%
solubility kinetic [15]: 43 µM (≈ 17.8 µg/mL)
IC50 [16]: 7.4 nM
CLhep predicted [17]: 14 mL/min/kg
inhibition [18]: 100%
logD [19]: 1.8
CLhep predicted [20]: 5 mL/min/kg
inhibition [21]: inactive
inhibition [22]: 30%
EC50 (Rattus norvegicus): 53 nM
Structure (SMILES): Cn1cnc2ncn(Cc3nc([C@@H]4CO[C@@H](c5ccc(Cl)cc5)C4)no3)c(=O)c21
inhibition at 10 µM (Cav1.2): < 15%
inhibition at 10 µM (Nav1.5): < 15%
Activity (Cavia porcellus): Dose-dependent effect
inhibition at 10 µM (hERG (KCNH2)): < 15%
